Here are results for 11 compounds from patent US6403626B1, “Benzimidazole derivatives” (Synaptic Pharmaceutical Corporation, priority 1994, dated 2002).

SMILES strings stand for the structures. pKi: −log10 of the molar value. Read-outs that look alike come from different tables or passages of the source.

Assay [1] concerns the target α2C Human Adrenergic Receptor (Homo sapiens, UniProt P18825). As to the kind of experiment: Equilibrium competition binding, [3H] rauwolscine, membranes of transfected LM(tk-) cells.
Assay [2] addresses T1, α2C Human Adrenergic Receptor (Homo sapiens, UniProt P18825).
T1 sequence (P18825 1-462): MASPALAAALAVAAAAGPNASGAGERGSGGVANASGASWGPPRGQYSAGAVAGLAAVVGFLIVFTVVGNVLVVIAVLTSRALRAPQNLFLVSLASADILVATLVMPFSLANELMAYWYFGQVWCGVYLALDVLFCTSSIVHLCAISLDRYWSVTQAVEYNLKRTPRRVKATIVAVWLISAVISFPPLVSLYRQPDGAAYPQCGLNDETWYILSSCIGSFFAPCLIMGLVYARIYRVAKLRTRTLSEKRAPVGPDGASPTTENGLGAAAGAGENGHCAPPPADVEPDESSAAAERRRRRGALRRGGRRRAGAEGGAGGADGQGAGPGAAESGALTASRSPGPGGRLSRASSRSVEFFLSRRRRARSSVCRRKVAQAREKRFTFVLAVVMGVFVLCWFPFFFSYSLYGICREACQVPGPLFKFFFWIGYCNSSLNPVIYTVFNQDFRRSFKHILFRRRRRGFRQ
The format is cell-based. More on the design: The entire coding region of α2C (1383 bp), including 2 bp of 5′ UT and 400 bp of 3′ UT; expressed in transfected cells; host or cells: LM(tk-) cells. The conditions noted are these: functional cAMP assay.

Assay [3] deals with T2, α2B Human Adrenergic Receptor (Homo sapiens, UniProt P18089).
T2 construct: expressed in transfected cells; host or cells: Y-1 cells
T2 sequence (P18089 1-450): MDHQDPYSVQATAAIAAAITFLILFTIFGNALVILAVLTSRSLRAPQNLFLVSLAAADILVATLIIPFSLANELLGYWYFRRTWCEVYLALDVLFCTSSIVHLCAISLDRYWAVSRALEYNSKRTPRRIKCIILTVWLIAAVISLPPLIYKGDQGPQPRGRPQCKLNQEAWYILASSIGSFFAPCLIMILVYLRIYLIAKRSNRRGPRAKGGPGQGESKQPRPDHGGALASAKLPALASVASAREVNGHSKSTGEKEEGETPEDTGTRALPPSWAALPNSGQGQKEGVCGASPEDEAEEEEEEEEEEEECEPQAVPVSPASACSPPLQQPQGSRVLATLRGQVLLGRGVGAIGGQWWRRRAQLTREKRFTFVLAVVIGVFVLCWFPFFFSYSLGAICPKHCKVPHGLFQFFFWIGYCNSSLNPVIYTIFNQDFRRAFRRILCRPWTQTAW
The format is cell-based.

Assay [4] concerns the target T2, α2B Human Adrenergic Receptor. The assay is described as follows: Equilibrium competition binding, [3H] rauwolscine, membranes of transfected Y-1 cells.
A further assay deals with rats. The conditions noted are these: systematic administration, reversed by atipamazole or idazoxan; cited from earlier work.
In assay [5] the target is T3, α1C Human Adrenergic Receptor (Homo sapiens, UniProt P35348).
T3 construct: expressed in transfected cells; host or cells: LM(tk-) cells
T3 sequence (P35348 1-466): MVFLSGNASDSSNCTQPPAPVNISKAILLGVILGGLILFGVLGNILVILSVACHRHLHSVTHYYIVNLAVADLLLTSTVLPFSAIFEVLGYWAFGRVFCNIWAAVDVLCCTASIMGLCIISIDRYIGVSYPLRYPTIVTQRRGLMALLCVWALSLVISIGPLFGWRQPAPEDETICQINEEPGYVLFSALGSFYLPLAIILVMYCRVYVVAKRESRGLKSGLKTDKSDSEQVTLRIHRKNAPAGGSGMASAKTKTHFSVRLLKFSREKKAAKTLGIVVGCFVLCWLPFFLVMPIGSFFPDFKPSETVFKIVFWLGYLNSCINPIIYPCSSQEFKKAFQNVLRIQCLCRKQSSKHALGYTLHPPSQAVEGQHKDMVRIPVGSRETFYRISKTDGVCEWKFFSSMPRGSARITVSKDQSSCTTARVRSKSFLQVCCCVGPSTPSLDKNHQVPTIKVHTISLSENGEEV
As to the kind of experiment: Equilibrium competition binding, [3H] prazosin, membranes of transfected LM(tk-) cells. The conditions noted are these: cloned human receptor; [3H] prazosin; read-out: pKi Alpha-1 C (converted). The procedure: Binding and functional assays were performed using stably transfected human alpha adrenergic receptors. Equilibrium competition binding assays were performed with membrane preparations from cultured LM(tk-) cells stably transfected with the cloned human adrenoceptor subtypes except for α2b, which was expressed in Y-1 cells, using [^3H] prazosin for α1 receptors and [^3H] rauwolscine for α2 receptors.
Transfected cells from culture flasks were scraped into 5 ml of 5 mM Tris-HCl, 5 mM EDTA, pH 7.5, and lysed by sonication. The cell lysates were centrifuged at 1000 rpm for 5 min at 4° C., and the supernatant was centrifuged at 30,000×g for 20 min at 4° C. The pellet was suspended in 50 mM Tris-HCl, 1 mM MgCl2, and 0.1% ascorbic acid at pH 7.5. Binding of α2 antagonist [^3H] rauwolscine ([…]) to membrane preparations of LM(tk-) cells was done in a final volume of 0.25 ml and incubated at 37° C. for 20 min. Nonspecific binding was determined in the presence of 10 μM phentolamine. The reaction was stopped by filtration through GF/B filters using a cell harvester.
The construct involved ligation three partial overlapping fragments: a 5′ 0.6 kb HincII genomic clone, a central 1.8 EcoRI hippocampal cDNA clone, and a 3′ 0.6 Kb PstI genomic clone. The hippocampal cDNA fragment overlaps with the 5′ and 3′ genomic clones so that the HincII and PstI sites at the 5 and 3′ ends of the cDNA clone, respectively, were utilized for ligation. This full-length clone was cloned into the KpnI site of the expression vector, using the 5′ and 3′ KpnI sites of the fragment, derived from vector (i.e., pBluescript) and 3′-untranslated sequences, respectively. Stable cell lines were selected as described above.

Assay [6] has as its target T4, α1B Human Adrenergic Receptor (Homo sapiens, UniProt P35368).
T4 construct: The entire coding region of α1B(1563 bp); expressed in transfected cells; host or cells: LM(tk-) cells
T4 sequence (P35368 1-520): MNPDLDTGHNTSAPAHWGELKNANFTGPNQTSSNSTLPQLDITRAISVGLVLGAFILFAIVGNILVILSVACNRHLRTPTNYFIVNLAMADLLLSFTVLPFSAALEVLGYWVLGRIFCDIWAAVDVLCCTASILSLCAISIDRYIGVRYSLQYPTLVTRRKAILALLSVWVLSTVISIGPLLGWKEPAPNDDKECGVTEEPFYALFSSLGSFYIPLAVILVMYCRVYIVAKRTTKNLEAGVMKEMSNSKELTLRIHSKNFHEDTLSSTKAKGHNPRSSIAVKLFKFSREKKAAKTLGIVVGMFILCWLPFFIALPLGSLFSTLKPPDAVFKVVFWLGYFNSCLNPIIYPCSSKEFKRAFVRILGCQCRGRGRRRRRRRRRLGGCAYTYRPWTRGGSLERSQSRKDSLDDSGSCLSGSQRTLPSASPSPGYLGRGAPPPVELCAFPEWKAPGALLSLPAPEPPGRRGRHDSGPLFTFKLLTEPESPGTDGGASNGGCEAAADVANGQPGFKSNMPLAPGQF
Described as above. The settings on record: cloned human receptor; [3H] prazosin; read-out: pKi Alpha-1 B (converted).

Assay [7] addresses T5, α1A Human Adrenergic Receptor (Homo sapiens, UniProt P25100).
T5 construct: expressed in transfected cells; host or cells: LM(tk-) cells
T5 sequence (P25100 1-572): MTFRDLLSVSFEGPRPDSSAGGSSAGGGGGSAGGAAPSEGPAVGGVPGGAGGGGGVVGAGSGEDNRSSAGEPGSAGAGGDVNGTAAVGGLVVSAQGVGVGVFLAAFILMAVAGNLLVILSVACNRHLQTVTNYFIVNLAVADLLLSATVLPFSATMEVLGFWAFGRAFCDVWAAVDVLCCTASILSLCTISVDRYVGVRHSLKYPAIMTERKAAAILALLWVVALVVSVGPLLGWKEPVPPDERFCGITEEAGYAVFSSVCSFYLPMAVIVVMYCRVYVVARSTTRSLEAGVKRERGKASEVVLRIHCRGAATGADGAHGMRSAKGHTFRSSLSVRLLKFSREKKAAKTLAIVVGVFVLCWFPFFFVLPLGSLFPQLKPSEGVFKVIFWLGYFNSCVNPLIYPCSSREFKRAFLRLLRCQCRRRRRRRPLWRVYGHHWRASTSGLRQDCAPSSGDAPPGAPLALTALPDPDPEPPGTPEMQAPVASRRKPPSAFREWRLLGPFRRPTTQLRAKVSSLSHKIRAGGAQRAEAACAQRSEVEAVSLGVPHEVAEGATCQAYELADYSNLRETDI
The description is as above.

For assay [8], the target named is T1, α2C Human Adrenergic Receptor. The assay is described as follows: Equilibrium competition binding, [3H] rauwolscine, membranes of transfected LM(tk-) cells. This is another data set of the same source.

For `Cc1cc2nc[nH]c2cc1NC1=NCCN1`, the pKi in assay [1] is 6.67.

Compound `CCCCc1c(NC2=NCCN2)ccc2nc[nH]c12` showed a negative-log Ki (pKi) in assay [1] of 6.92.

In the case of `Cc1cc(NC2=NCCN2)cc2[nH]cnc12`, in assay [1], the negative-log Ki (pKi) was 6.90.

In the case of `CCc1nc2ccc(NC3=NCCN3)c(Br)c2[nH]1`, the pKi in assay [1] is 6.74.

The compound `CCCCc1cc(NC2=NCCN2)cc2[nH]cnc12` gave a pKi in assay [1] of 6.69.

`Cn1cnc2cc(NC3=NCCN3)ccc21` had a negative logarithm of the Ki (pKi) in assay [1] of 6.81.

As to `Ic1cc(NC2=NCCN2)cc2[nH]cnc12` [Example 54, 7-Iodo-5-(2-imidazolin-2-ylamino)Benzimidazole], in assay [2], the “I.A Alpha-2 C” value stood at 0.90. The “I.A Alpha-2 B” value in assay [3] (functional cAMP assay) is recorded as 0.60. Moreover, the EC50 in assay [3] (inhibition of forskolin-stimulated cAMP, NA: Not Active, read-out: pEC50 Alpha-2 B (converted)) is 138 nM. Further, the Ki in assay [4] (cloned human receptor, [3H] rauwolscine, read-out: pKi Alpha-2 B (converted)) was 27.5 nM. The pKi in [1] was 6.70.

In assay [1], `CC(C)(C)c1nc2ccc(NC3=NCCN3)c(Br)c2[nH]1` showed a negative logarithm of the Ki (pKi) of 6.53.

`Cc1cccc(C(C)c2cnc[nH]2)c1C` (centres unmarked) [Medetomidine]: the antinociception entry in the assay on rats is listed as “dose-dependent antinociception”.

As for `CC(C)Cn1cnc2cc(NC3=NCCN3)ccc21` [Example 22, 1-Isobutyl-5-(2-imidazolin-2-ylamino)Benzimidazole], the Ki in assay [5] was 1860 nM; in [6] it was 105000 nM. Further, the negative logarithm of the Ki (pKi) was 6.37 in [4], 4.98 in assay [7] and 6.74 in [8].

Take `c1cc2ncn(C3CCCC3)c2cc1NC1=NCCN1` [Example 27, 3-Cyclopentyl-5-(2-imidazolin-2-ylamino)Benzimidazole]: the Ki in assay [5] is 6920 nM; in assay [6], 33900 nM. Also, the pKi in [4] was 5.99; in assay [7] it was 5.08; in [8], 6.14.

The term pKi denotes the negative decadic logarithm of the Ki, by convention in mol/L. Low values mean a high Ki, high ones a low Ki.
